Reference: patent US20100197616A1, “Proliferation inhibitor of helicobacter pylori including alpha-n-acetyl-glucosaminyl bond-containing monosaccharide derivatives” (THE NOGUCHI INSTITUTE, priority 2007, published 2010)

Assays:
H. pylori (ATCC 43504) = test: H. pylori-proliferation inhibitory effect (OD 600 nm versus negative control); format: cell-based, Helicobacter pylori
Protocol: The effect of GlcNAc alpha-O-Et on H. pylori was confirmed according to the following procedures. Bacterial cells of H. pylori (ATCC 43504) stored in a brucella broth culture medium frozen at −80° C. were cultured in the same culture medium (3 mL) supplemented with 10% equine serum at 35° C. in the presence of 15% CO2 for 40 hours according to the shaking culture technique, the movement of bacterial cells was observed under a microscope and non-coccoid type bacterial cells of H. pylori were recovered. The culture medium was inspected for the OD values at 600 nm, followed by the dilution thereof with Muller-Hinton culture medium supplemented with 5.5% equine serum such that the number of bacterial cells present therein was equal to 4×10^7, and 3 mL thereof in total was cultured at 35° C. in the presence of 15% CO2 for 24 hours according to the shaking culture technique, followed by the confirmation by a microscope to thus give an H. pylori-containing culture medium (bacterial cell density: 2×10^7/mL) used in the test for the confirmation of the effect of the foregoing compound. On the other hand, there were prepared Muller-Hinton culture mediums (free of any bacterial cell of H. pylori) each containing 902.6 μM to 14.4 mM of the foregoing GlcNAc alpha-O-Et and supplemented with 5% equine serum, each of the resulting culture mediums was added to the foregoing H. pylori-containing culture medium in a mixing ratio of 1:1 (by volume) (total volume: 100 μL each; on a 96-well plate), followed by the mixing thereof and the subsequent cultivation at 35° C. in the presence of 15% CO2 for 96 hours. After the cultivation thereof over a predetermined period of time, the bacterial cell density thus proliferated was determined by the determination of the OD values at 600 nm, followed by the comparison of the result observed for the sample to which the candidate compound was added with that observed for the negative control free of any candidate compound (the control depicted in FIG. 1) to thus evaluate the proliferation inhibitory effect of the compound. In this respect, 1 U herein means 2.9 μmol/mL. The effect of GlcNAc alpha-cholestanol on H. pylori was confirmed according to the following procedures. Bacterial cells of H. pylori (ATCC 43504) stored in a brucella broth culture medium frozen at −80° C. were cultured in the same culture medium (3 mL) supplemented with 10% equine serum at 35° C. in the presence of 15% CO2 for 40 hours according to the shaking culture technique, the movement or behavior of bacterial cells was observed under a microscope and non-coccoid type bacterial cells of H. pylori were recovered. […]

[1] = Decomposition in culture mediums and the stomach; conditions: within the culture mediums and the stomach

Row | SMILES | inhibition at 180 µM (H. pylori (ATCC 43504); Helicobacter pylori, ATCC43504, at least 62.5 mU/mL (180 μM, nominal, insoluble fraction filtered off), within 1.5 to 2 days, FIG. 2) [%] | decomposition (stability) [1] | proliferation ability of H. pylori (H. pylori (ATCC 43504); culture medium containing not less than 1.8 mM) | inhibition of the proliferation of H. pylori (H. pylori (ATCC 43504); culture medium containing not less than 7.2 mM) | H. pylori proliferation inhibited (H. pylori (ATCC 43504); not less than 625 mU/mL (1.8 mM), FIG. 1, cultivation up to 96 hours)
1 | CC(=O)NC1[C@@H](O[C@H]2CC[C@@]3(C)C(CCC4C3CC[C@@]3(C)C4CC[C@@H]3[C@H](C)CCCC(C)C)C2)OC(CO)[C@@H](O)[C@@H]1O (stereo partly drawn) [Compound 2, 3-beta-Cholestanyl-2-Acetamide-2-Deoxy-N-Acetyl-alpha-D-Glucosaminide] | 40 to 50 |  |  |  | 
2 | CCO[C@H]1OC(CO)[C@@H](O)[C@H](O)C1NC(C)=O (stereo partly drawn) [Compound 1, Ethoxy 2-acetamide-2-deoxy-N-acetyl-alpha-D-glucosaminide] |  | never decomposed | not more than 50% | completely inhibit | not less than 50%
